Measured values: patent US20180027813A1, “Use of an agent to control resistant rodents” (priority 2015, published 2018)

Key:
[1] = system: brown rat VKORC1 strain Y139S; set-up: key to Practical resistance of the strain: X = Strain exhibits a practical resistance to:; conditions: cited from earlier work; for Tolerance / practical resistance (in words): strain Y139S (Wales); for Practical resistance of the strain: strain Y139S
[2] = system: brown rat VKORC1 strain Y139F; set-up: key: X = Strain exhibits a practical resistance to:; conditions: cited from earlier work
[3] = system: brown rat VKORC1 strain L120Q Berkshire; set-up: key: X = Strain exhibits a practical resistance to:; conditions: cited from earlier work
[4] = system: brown rat (Rattus norvegicus) strain L120Q Hampshire; conditions: BCR resistance test; cited from earlier work
[5] = system: brown rat (Rattus norvegicus) strain Y139S; conditions: determined on the basis of LD50; cited from earlier work
[6] = system: brown rat (Rattus norvegicus) strain Y139C; conditions: BCR resistance test; cited from earlier work
[7] = system: resistant rat strain "Westphalia" (VKORC1 Y139C); test: Laboratory feeding tests with single anticoagulants; format: in vivo; conditions: feed baits with one active ingredient
Source text: The resistant rat strain “Westphalia”, characterized by the VKORC1 polymorphism Y139C, is resistant to the second-generation anticoagulants bromadiolone and difenacoum, and also to the first-generation active ingredients. Feed baits containing one of these active ingredients in the authorized concentration are not effective against animals of this strain.

[8] = system: brown rat (Rattus norvegicus) strain Y139F; conditions: BCR resistance test; cited from earlier work
[9] = system: brown rat VKORC1 strain L128Q; set-up: key: X = Strain exhibits a practical resistance to:; conditions: cited from earlier work
[10] = system: brown rat VKORC1 strain Y139C; set-up: key to Practical resistance of the strain: X = Strain exhibits a practical resistance to:; conditions: cited from earlier work; for Sensitivity of animals with VKORC1 Tyr139Cys (in words): Y139C brown rats and house mice, difenacoum in rats only; for Practical resistance of the strain / Resistance in laboratory and field experiments (in words): strain Y139C
[11] = system: brown rats of the resistant strain Y139C; test: Feeding experiment with brown rats of the resistant strain Y139C (Example 1); format: in vivo, brown rat; conditions: for Mortality (in words): resistant rats
Procedure: A cholecalciferol concentration of 100 mg/kg is enough to make it possible to achieve mortality rates of up to 100% (see the examples).
[…] received feed baits, as described below, over a period of 4 days. Consumption and mortality were determined afterwards. One group (6 rats, Group 1) was fed a feed bait consisting of coumatetralyl (375 mg/kg) and cholecalciferol (100 mg/kg). The other group (Group 2) was fed coumatetralyl on its own (375 mg/kg). All animals consumed the feed baits except for one animal from Group 2. Consumption was highest during the first 24 hours. On the third and fourth day, there was only little consumption. […] Two males each consumed approximately 47 mg/kg coumatetralyl and 12.5 mg/kg cholecalciferol (based on the body weight). The females consumed from 50 to 79 mg/kg coumatetralyl and from 13 to 21 mg/kg cholecalciferol (based in each case on the body weight). In Group 2, no mortality was observed, although the animals consumed 94 mg/kg coumatetralyl (mean value based on the body weight).

[12] = system: rats caught on the farm (strain Y139C area); test: Blood coagulation test with coumatetralyl on rats caught on the farm; format: in vivo, rat; conditions: blood coagulation test before control
Source text: The term “resistance(s)” in the context of the invention refers to “practical resistance”, characterized in that the rodenticide in question no longer achieves sufficient biological efficacy even with proper use and good acceptance of the bait by the rodents (see also Greaves—1994, Buckle A. P. and Smith R. H. eds. “Rodent Pests and their Control”, CABI, Wallingford, Oxon, UK, pages 197-217). A person skilled in the art can make a clear and unambiguous assessment in accordance with this definition as to whether a practical resistance is present or not. In general, the degree of “resistance” can be described by specifying a resistance factor. The resistance factor (RF) is usually calculated on the basis of the lethal dose (LD50) or of the effective dose (ED50). […] LD50 and ED50 are each determined experimentally for each strain. […] Until the 1980s, RFs were determined on the basis of the LD50. This method was later replaced by blood coagulation tests (BCR resistance tests), by means of which the ED50 can be determined more accurately (Prescott et al. 2007: A standardised BCR-resistance test for all anticoagulant rodenticides. Int. J. Pest Mgt. 53 (4), 265-272). Therefore, it is preferred according to the invention that RF be calculated via the quotient formed from the ED50 of the resistant strain and of a sensitive strain considered to be the reference. […]

SMILES	Tolerance / practical resistance (in words) [1]	Practical resistance of the strain [2]	Practical resistance of the strain [3]	Resistance factor (RF) for bromadiolone [4]	Resistance factor (RF) for bromadiolone [5]	Resistance factor (RF) for bromadiolone [6]	Mortality [7]	Resistance factor (RF) for bromadiolone [8]	Practical resistance of the strain [9]	Sensitivity of animals with VKORC1 Tyr139Cys (in words) [10]	Practical resistance of the strain [10]	Resistance in laboratory and field experiments (in words) [10]	Practical resistance of the strain [1]	Mortality (in words) ([11]; cholecalciferol by itself at 100 mg/kg)	Share of rats on the farm resistant for coumatetralyl [12]	Mortality (in words) ([11]; coumatetralyl by itself)	Mortality ([11]; feed baits over 4 days, 6 rats of strain Y139C per group)
O=c1oc2ccccc2c(O)c1C(CC(O)c1ccc(-c2ccc(Br)cc2)cc1)c1ccccc1 (stereo not drawn) [bromadiolone]	no practical resistance	X	X	10-14	2.7-6.9	15-17	no mortality	7-9	X	virtually completely insensitive	X	resistant	–	–	–	–	–
O=C1c2ccccc2C(=O)C1C(=O)C(c1ccccc1)c1ccc(Cl)cc1 (stereo not drawn) [chlorophacinone, (1′-p-chlorophenyl-1′-phenyl)-2-acetylindane-1,3-dione]	–	X	X	–	–	–	–	–	X	–	X	–	X	–	–	–	–
C=C1CC[C@H](O)C/C1=C/C=C1\CCC[C@]2(C)[C@@H]([C@H](C)CCCC(C)C)CC[C@@H]12 [cholecalciferol]	–	–	–	–	–	–	–	–	–	–	–	–	–	does not cause mortality	–	–	–
O=c1oc2ccccc2c(O)c1C1CCCc2ccccc21 (stereo not drawn) [coumatetralyl, 3-(1′,2′,3′,4′-tetrahydro-1′-naphthyl)-4-hydroxycoumarin]	–	X	X	–	–	–	no mortality	–	X	virtually completely insensitive	X	–	X	–	approximately 46%	does not cause mortality	no mortality
O=c1oc2ccccc2c(O)c1C1CC(c2ccc(-c3ccccc3)cc2)Cc2ccccc21 (stereo not drawn) [difenacoum, 3-(3′-paradiphenylyl-1′,2′,3′,4′-tetrahydro-1′-naphthyl)-4-hydroxycoumarin]	–	–	X	–	–	–	–	–	–	virtually completely insensitive	X	resistant	–	–	–	–	–
CC(=O)CC(c1ccccc1)c1c(O)c2ccccc2oc1=O (stereo not drawn) [warfarin, (1-phenyl-2-acetyl)-3-ethyl-4-hydroxycoumarin]	somewhat more tolerant	X	X	–	–	–	–	–	X	virtually completely insensitive	X	–	X	–	–	–	–
